Source: US20150087606A1, “PHARMACEUTICAL COMPOSITION FOR PREVENTING OR TREATING AMYLOID BETA PEPTIDE-ASSOCIATED DISEASES OR CONDITIONS” (Sinphar Tian-Li Pharmaceutical Co., Ltd. (Hangzhou), priority 2011, published 2015)
Entries after “also recorded” stand apart in the source; their conditions may differ.

Legend:
[1] = tested on: extracellular Aβ1-40 accumulation, SH-SY5Y cells; assay: Effect of each test sample on extracellular Aβ1-40 accumulation (Human Aβ1-40 immunoassay of the medium); format: cell-based
Protocol: Wild-type human neuroblastoma cells (SH-SY5Y) were cultured in Eagle's Minimum essential Medium (EMEM)/Ham's F12 medium (1:1 mixture) (containing 10% FBS, 10 units/ml penicillin, 10 μg/ml Streptomycin). Wild-type mouse neuroblastoma Neuro-2a cells were cultured in minimum essential medium (MEM) (containing 10% FBS, 10 units/ml penicillin, 10 μg/ml Streptomycin).
The medium of the wild-type human neuroblastoma SH-SY5Y cells in Example 1 were switched into chemical defined medium (EMEM/F12 medium (Cat. No. 12500-062), Hepes 5 mM, Glucose 0.6%, NaHCO3 3 mM, Glutamine 2.5 mM, Insulin 25 μg/ml, Transferin 100 μg/ml, Progestrone 20 nM, Putrescine 60 μM, Sodium selenite 30 nM, Heparin 2 μg/ml). Each well contained 1×10^5 SH-SY5Y cells in 300 μl of culture medium. Thirty minutes later, each well was treated with the test samples given in Table 1 respectively at a total concentration of 50 μg/ml for 24 hours. After that, the level of Aβ1-40 in the medium of each well was analyzed by Human Aβ1-40 immunoassay kits (Catalog #KHB3482 Invitrogen).
Human neuroblastoma SH-SY5Y cells cause extracellular accumulation of Aβ. […] The results were shown in mean ± standard deviation (SD) form. Significant difference between the Vehicle control group and the test sample-treated groups were indicated by * * * , P<0.001.

Human Aβ1-42 = Human Aβ1-42 (Homo sapiens, UniProt P05067); assay: Effect of each test sample on Aβ1-42 oligomerization (thioflavin T fluorescence); format: biochemical; conditions: 50 μg/ml, 4° C., 24 hours, thioflavin T fluorescence (FIG. 2)
Protocol: Dried Human Aβ1-42 was taken out from the refrigerator and equilibrated to room temperature. Aβ1-42 was dissolved in 1,1,1,3,3,3-Hexa-fluro-2-propanol (HFIP) to a concentration of 1 mM, and was then placed at room temperature for one hour. The Aβ1-42/HFIP solution was aliquoted by Hamilton syringe, and was then dried under a stream of nitrogen gas, followed by storing at a temperature of −20° C. Aβ1-42 treated with HFIP was dissolved in PBS, and was vibration-incubated with treatment of each test sample at a concentration of 50 μg/ml and at 4° C. for 24 hours to prepare Aβ1-42 oligomers. The level of Aβ1-42 oligomerization was analyzed by thioflavin T fluorescence (Ex=450 nm, Em=482 nm). […] That is to say, these pharmaceutical compositions can be used to prevent or treat Aβ-associated diseases or conditions.

Sequence of Human Aβ1-42 (P05067 672-713 limits assumed): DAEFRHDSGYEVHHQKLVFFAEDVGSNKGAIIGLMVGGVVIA

| activity on inhibiting Aβ1-42 oligomerization (in words) (Human Aβ1-42) | SMILES | reduces the level of Aβ1-40 in the medium ([1]; total concentration of 50 μg/ml, 24 hours, based on Vehicle control group (FIG. 1)) | activity on reducing extracellular Aβ1-40 accumulation (in words) ([1]; total 50 μg/ml, 24 hours (FIG. 1)) |
| --- | --- | --- | --- |
| – | C[C@@H]1O[C@@H](O[C@@H]2[C@@H](O)[C@H](OCCc3ccc(O)c(O)c3)O[C@H](CO)[C@H]2OC(=O)/C=C/c2ccc(O)c(O)c2)[C@H](O)[C@H](O)[C@H]1O [A, Acteoside] | about 10% | – |
| better activity | C[C@@H]1O[C@@H](O[C@@H]2[C@@H](O)[C@H](OCCc3ccc(O)c(O)c3)O[C@H](COC(=O)/C=C/c3ccc(O)c(O)c3)[C@H]2O)[C@H](O)[C@H](O)[C@H]1O [I, Isoacteoside] | – | significant activity; also recorded: better activity |
